The values below come from patent US8853274B1, “Compositions and methods for targeting glioblastomas cells” (Vanderbilt University, priority 2011, dated 2014).

The subject of experiment [1] is T4302 CD133+ cells expressing RhoB shRNA. Nature of the experiment: Growth, caspase and Akt phosphorylation in RhoB shRNA cells. The format is cell-based, human. The settings on record: 100 nM. Here is the method: (A) T4302 CD133+ cells were infected with lentivirus directing expression of a non-targeting shRNA or two RhoB specific shRNA. Cells were lysed for immunoblotting 3 days after infection. (B, C) Two days after infection, cells were selected with puromycin for two days, and plated in 96-well plates for growth curve assays. Cell growth was measured on days 1, 3 and 5 after plating, and normalized to the corresponding readout on day 1. (D-F) After lentiviral infection and puromycin selection as described above, T4302 CD133+ cells were treated with 100 nM GSI, FTI, ±3 Gy radiation and plated for subsequent experiments. (D) Relative growth on day 5, (E) caspase activation on day 3, and (F) protein levels on day 1 after treatment were determined as described in FIG. 4. *: p<0.001 by Student's t-test in comparison to the corresponding control groups.

Experiment [2] deals with intracranial T4302 tumors. The experiment can be described thus: Orthotopic GBM model, survival and tumor burden. It is filed as in vivo, Athymic nude mice. Here is the method:
(A, B) T4302 CD133+ cells were treated with 100 nM GSI±FTI for 48 hours and lysed in RIPA buffer. Mice bearing intracranial T4302 tumors were orally treated with 30 mg/kg/day GSI once a day (q.d.)±100 mg/kg/day FTI twice a day (b.i.d.) for 7 days. Brains were resected and homogenized in RIPA buffer. All lysates were blotted with an antibody specific to prelamin A. (B) Additional brains were fixed and resected for IHC staining for cleaved Notch1. (C) T4302 CD133+ cells were infected with lentivirus expressing firefly luciferase and selected with puromycin for two days. Athymic nude mice were intracranially implanted with 5,000 cells, maintained for 10 days, and treated with GSI±FTI for 20 days as described above. In a separated experiment, animals were treated by the same protocol, except they were given 2 doses of 4 Gy X-ray irradiation on day 11 and day 12, 4 hours after drug administration. These mice were on drugs for 30 days. The median survival was calculated by the GraphPad Prism 5 software. (D) Animals in the unirradiated experiment were tracked for their tumor progression by bioluminescence imaging. The Y axis is set in a log scale. (E,F) The survival curves of these two experiments are shown.
Mice were first anesthetized using an isoflurane inhalation system and maintained on the nose cone during the procedure. 5,000 CD 133+ GSC cells suspended in 10 μl PBS were implanted into the right cerebrum with 30 gauge needles. Animals were maintained for 10 days to allow tumor establishment. Before treatment, any mouse showing distress or neurological signs (e.g. lethargy, hemiparesis, ataxia, seizures) would be euthanized. The remaining mice will be randomized to treatment groups just prior to treatment. […]
Mice were weighted and visually inspected daily once treatments begin. Tumor development was monitored by bioluminescence imaging every week. […] The primary readout of the in vivo tests is the median survival calculated by the Kaplan-Meier estimator using the GraphPad Prism5 software. Drug efficacy was also be assessed by tumor sizes estimated by bioluminescence imaging.

For another experiment, the system named is Akt. The experiment can be described thus: Immunoblot of Akt phosphorylation in T4302 CD133+ cells. The format is cell-based, human. The settings on record: 200 nM, ±radiation, 2 days. Here is the method:
(A) T4302 CD133+ cells were treated with 200 nM RO4929097 (GSI), and irradiated 4 hours later. Cells were cultured for two days and lysed for immunoblotting. (B) T4302 CD133+ cells were treated with 200 nM GSI or FTI±radiation. Cells were lysed 2 days after treatment. (C) T4302 CD133+ cells were treated with 200 nM GSI±FTI for 24 hours, and left under normoxia or in 2% O2 for 16 hours before being lysed for immunoblotting.

Structures are written as SMILES.

For `CC(C)(C(=O)NCC(F)(F)C(F)(F)F)C(=O)N[C@@H]1C(=O)Nc2ccccc2-c2ccccc21` [RO4929097], the “Akt phosphorylation in RhoB knockdown cells compared with control cells” value in experiment [1] (day 1) is “greater reduction of Akt phosphorylation”. Also, in experiment [1] (±3 Gy), the “sensitivity of RhoB shRNA cells (growth day 5, caspase day 3)” value is recorded as “highly sensitive”. The “survival benefit, in words” value is listed as “did not produce significant benefits” in experiment [2] (unirradiated, 20 days oral treatment) and “some modest effects” in experiment [2] (with 2 doses of 4 Gy local X-ray, 30 days oral treatment). Besides, the “mice free of tumor burden / sustained control of orthotopic GBM” value in experiment [2] (with radiation, ~day 80) was 1 out of 8. Further, the “Akt activity (phosphorylation at serine 473 and threonine 308)” value in the experiment on Akt is reported as “stronger Akt inhibition in irradiated cells than in unirradiated cells”.
